# From patent publication US20040204455A1, “Piperidine derivative rennin inhibitors” (priority 2003, published 2004)
# Molecular target: T1, human renin (Homo sapiens, UniProt P00797)
# T1 sequence (P00797 67-406): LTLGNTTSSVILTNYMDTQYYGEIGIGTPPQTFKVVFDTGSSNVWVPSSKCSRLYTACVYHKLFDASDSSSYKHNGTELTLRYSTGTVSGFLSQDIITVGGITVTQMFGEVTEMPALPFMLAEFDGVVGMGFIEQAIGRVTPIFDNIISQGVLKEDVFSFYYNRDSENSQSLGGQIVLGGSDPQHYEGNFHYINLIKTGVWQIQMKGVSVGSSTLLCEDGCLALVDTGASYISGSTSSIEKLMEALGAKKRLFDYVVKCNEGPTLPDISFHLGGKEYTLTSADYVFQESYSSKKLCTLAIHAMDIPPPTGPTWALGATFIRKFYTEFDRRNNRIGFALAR
# Assay: Determination of Renin IC50 by tGFP FRET Assay
# Type: biochemical
# Conditions: Human recombinant renin, tandem GFP substrate 650 nM, renin and compound incubated 60 minutes before substrate, pH 7.4
# From the text: Determination of Renin IC50 by tGFP FRET Assay
# The tGFP FRET (Green Fluorescent Protein Fluorescence Resonance Energy Transfer) assay utilizes a tandem GFP substrate (60 kDa) containing nine amino acid recognition sequences for human renin flanked by two GFP proteins. The assay is used to determine the ability of a compound to act as an inhibitor of renin enzymatic activity by determination of that concentration of test compound that inhibits by 50% (IC50) the ability of renin to cleave the tandem GFP substrate. The IC50 values are determined over an 11-point curve at concentrations of 100 μM to […]. Each compound concentration used to construct the curve was dependent on renin inhibitor potency. For example, subnanomolar IC50 values were determined over an 11-point curve at concentrations of 10 μM to […]. All other IC50 values were determined over an 11-point curve at concentrations of 100 μM to 0.0065 μM. The concentrations were achieved by diluting a 9.1 nM stock of Human recombinant renin in the appropriate amount of buffer containing 50 mM HEPES, 1 mM EDTA, 1% PEG (8000 MW), 1 mM DTT, 0.1% BSA, pH 7.4 to achieve the final concentration of 50.4 μIU. The tGFP substrate stock solution of 43 μM was diluted with the appropriate amount of the above buffer to obtain the final concentration of 650 nM. In addition, 1 μl of the compound is diluted in DSMO to represent an […] log scale (5% final). The renin and compound are added to a 384 capacity plate by an automated robot (BIOMEK). The plate is incubated for 60 minutes; upon completion the tGFP substrate is added.
# The IC50 is determined by monitoring the increase in […] at 432/432 nm excitation, 530/475 nm emission with a cutoff at 515/455 nm, in a fluorometric plate reader.
row,Compound,IC50 [µM]
1,"O=C1CCC(=O)N1CCOc1cccc(CN[C@H]2CNCC[C@H]2c2ccc(OCCCOCc3ccccc3F)cc2)c1 (racemic) [1-(2-{3-[(4-{4-[3-(2-Fluoro-benzyloxy)-propoxy]-phenyl}-piperidin-3-ylamino)-methyl]-phenoxy}-ethyl)-pyrrolidine-2,5-dione]",1.4
2,O=C1CCCN1CCOc1cccc(CN[C@H]2CNCC[C@H]2c2ccc(OCCCOCc3ccccc3F)cc2)c1 (racemic) [1-(2-{3-[(4-{4-[3-(2-Fluoro-benzyloxy)-propoxy]-phenyl}-piperidin-3-ylamino)-methyl]-phenoxy}-ethyl)-pyrrolidine-2-one],0.932
3,COC(=O)c1cccc(CN[C@@H]2CNCC[C@@H]2c2ccc(OCCCOCc3ccccc3F)cc2)n1 (racemic) [6-[(4-{4-[3-(2-Fluoro-benzyloxy)-propoxy]-phenyl}-piperidin-3-ylamino)-methyl]-pyridine-2-carboxylic acid methyl ester],6.98
4,COc1ccccc1COCCCOc1ccc([C@H]2CCNC[C@H]2NCc2ccc3cc(O)ccc3c2)cc1 (racemic) [6-[(4-{4-[3-(2-methoxy-benzyloxy)-propoxy]-phenyl}-piperidin-3-ylamino)-methyl]-naphthalen-2-ol],> 1
5,COc1ccccc1COCCCOc1ccc([C@H]2CCNC[C@H]2NCc2ccc3[nH]ccc3c2)cc1 (racemic) [(1H-indol-5-ylmethyl)-(4-{4-[3-(2-methoxy-benzyloxy)-propoxy]-phenyl}-piperidin-3-yl)-amine],> 1
6,Fc1ccccc1COCCCOc1ccc([C@@H]2CCNC[C@@H]2NCc2ccc(F)c(C(F)(F)F)c2)cc1 (racemic) [(4-{4-[3-(2-fluoro-benzyloxy)-propoxy]-phenyl}-piperidin-3-yl)-(4-fluoro-3-trifluoromethyl-benzyl)-amine],0.454
7,"COc1ccccc1COCCCOc1ccc([C@H]2CCNC[C@H]2NCc2ccc3c(c2)NCCC3)cc1 (racemic) [(4-{4-[3-(2-methoxy-benzyloxy)-propoxy]-phenyl}-piperidin-3-yl)-(1,2,3,4-tetrahydro-quinolin-7-ylmethyl)-amine]",0.226
8,COc1ccc2cc(CN[C@@H]3CNCC[C@@H]3c3ccc(OCCCOCc4ccccc4OC)cc3)ccc2c1 (racemic) [(4-{4-[3-(2-methoxy-benzyloxy)-propoxy]-phenyl}-piperidin-3-yl)-(6-methoxy-naphthalen-2-ylmethyl)-amine],0.0743
9,COc1ccccc1COCCCOc1ccc([C@H]2CCNC[C@H]2N(C)Cc2ccc3ccccc3c2)cc1 (racemic) [(4-{4-[3-(2-methoxy-benzyloxy)-propoxy]-phenyl}-piperidin-3-yl)-methyl-naphthalen-2-ylmethyl-amine],0.573
10,COc1ccccc1COCCCOc1ccc([C@H]2CCNC[C@H]2NCc2ccc3ccccc3c2)cc1 (racemic) [(4-{4-[3-(2-methoxy-benzyloxy)-propoxy]-phenyl}-piperidin-3-yl)-naphthalen-2-ylmethyl-amine],0.087
11,COc1ccccc1COCCCOc1ccc([C@H]2CCNC[C@H]2NCc2ccc3cccnc3c2)cc1 (racemic) [(4-{4-[3-(2-methoxy-benzyloxy)-propoxy]-phenyl}-piperidin-3-yl)-quinolin-7-ylmethyl-amine],0.175
12,O=S(=O)(N[C@@H]1CNCC[C@@H]1c1ccc(OCCCOCc2ccccc2F)cc1)c1ccc2ccccc2c1 (racemic) [Naphthalene-2-sulfonic acid (4-{4-[3-(2-fluoro-benzyloxy)-propoxy]-phenyl}-piperidin-3-yl)-amide],0.693
13,"COc1ccccc1COCCCOc1ccc([C@H]2CCNC[C@H]2NCc2ccc3c(c2)N(CCN(C)C)CCC3)cc1 (racemic) [[1-(2-dimethylamino-ethyl)-1,2,3,4-tetrahydro-quinolin-7-ylmethyl]-(4-{4-[3-(2-methoxybenzyloxy)-propoxy]-phenyl}-piperidin-3-yl)-amine]",> 1
14,COc1ccccc1COCCCOc1ccc([C@H]2CCNC[C@H]2NCc2ccc3occc3c2)cc1 (racemic) [benzofuran-5-ylmethyl-(4-{4-[3-(2-methoxy-benzyloxy)-propoxy]-phenyl}-piperidin-3-yl)-amine],0.393
15,COc1ccccc1COCCCOc1ccc([C@H]2CCNC[C@H]2NC(=O)c2cccc3ccccc23)cc1 (racemic) [naphthalene-1-carboxylic acid (4-{4-[3-(2-methoxy-benzyloxy)-propoxy]-phenyl}-piperidin-3-yl)-amide],> 1
16,COC(=O)COc1cccc(CN[C@H]2CNCC[C@H]2c2ccc(OCCCOCc3ccccc3F)cc2)c1 (racemic) [{3-[(4-{4-[3-(2-Fluoro-benzyloxy)-propoxy]-phenyl}-piperidin-3-ylamino)-methyl]-phenoxy}-acetic acid methyl ester],0.924
17,COC(=O)c1cccc2cc(CN[C@@H]3CNCC[C@@H]3c3ccc(OCCCOCc4ccccc4OC)cc3)ccc12 [6-[(4-[3-(2-methoxy-benzyloxy)-propoxyl]-phenyl}-piperidin-3-ylamino)-methyl]-naphthalene-1-carboxylic acid methyl ester],0.282
18,COc1ccccc1COCCCOc1ccc([C@H]2CCNC[C@H]2NCc2ccc3c(C(=O)O)cccc3c2)cc1 [6-[(4-[4-(2-methoxy-benzyloxy)-propoxyl]-phenyl}-piperidin-3-ylamino)-methyl]-naphthalene-1-carboxylic acid],2.6
19,COC(=O)c1ccc2cc(CN[C@@H]3CNCC[C@@H]3c3ccc(OCCCOCc4ccccc4F)cc3)ccc2c1 [6-[(4-{4-[3-(2-Fluoro-benyloxy)-propoxy]-phenyl}-piperidin-3-ylamino)-methyl]-naphthalene-2-carboxylic acid methyl ester],0.877
20,O=C(O)c1ccc2cc(CN[C@@H]3CNCC[C@@H]3c3ccc(OCCCOCc4ccccc4F)cc3)ccc2c1 [6-[(4-{4-[3-(2-Fluoro-benyloxy)-propoxy]-phenyl}-piperidin-3-ylamino)-methyl]-naphthalene-2-carboxylic acid],> 1
21,COC(=O)c1ccc2cc(CN[C@@H]3CNCC[C@@H]3c3ccc(OCCCOCc4ccccc4OC)cc3)ccc2c1 [6-[(4-{4-[3-(2-Methoxy-benyloxy)-propoxy]-phenyl}-piperidin-3-ylamino)-methyl]-naphthalene-2-carboxylic acid methyl ester],0.329
